Data as given in US20070275046A1, “Noval Surfactants and Applications Thereof” (TS PHARMA, priority 2003, published 2007).

Key:
Assay type in all cases: physicochemical
[1] = Release kinetics of encapsulated carboxyfluorescein by spectrofluorimetry; conditions: compared with encapsulation in egg yolk phosphatidylcholine; 25° C., Tris buffer pH 7.4, 4 h
Protocol: The encapsulation capacity of the various compounds is determined by spectrofluorimetry using a fluorescent probe: 5 (6)-carboxyfluorescein. The release of this fluorescent label from the vesicles prepared according to standardized methods is measured.
This study requires the preparation of a Tris buffer (15 mM and 150 mM NaCl) at pH 7.4, and also of a 120 mM carboxyfluorescein solution, also at pH 7.4.
The compounds studied are weighed out (2.5 mg/ml) and are dissolved in a minimum amount of methanol. The solvent is evaporated off under reduced pressure in a rotary evaporator and the film thus obtained is dried with a stream of nitrogen. […]
The fluorescence measurements were carried out using a Jobin-Yvon spectrofluorimeter (spectrofluoromax 2), equipped with a 150 W xenon lamp. […] The samples were analyzed at an excitation wavelength of 480 nm, and an emission wavelength of 530 nm for 4 hours. […]
For each measurement, the initial fluorescence intensity (F0) is determined 30 seconds after the column filtration. The release is studied over a period of 4 h and the fluorescence intensity (Ft) is measured at regular intervals. The maximum fluorescence intensity (Fmax), which corresponds to 100% release, is obtained after tubular vesicle lysis obtained by the addition of Triton X100 (10% v/v). […]

[2] = Particle size by dynamic light diffraction / photon correlation spectroscopy (Malvern HPPS)
Protocol: (§1) The size and the mechanical stability over time of the particles obtained in the solution were measured after filtration by dynamic light diffraction (High Performance Particle Sizer, Malvern). The nature of the particles obtained was studied by transmission electron microscopy after negative staining of the sample or after freeze-fracture (FIG. 4).
The size and the mechanical stability over time of the particles obtained in the solution were measured after dynamic light diffraction filtration (High Performance Particle Sizer, Malvern). The nature of the particles obtained was studied by transmission electron microscopy after negative staining of the sample or after freeze-fracture. The critical aggregation concentration of these surfactants was determined by tensiometry or by spectrofluorimetry using the fluorescent label method. […] The phase transition temperature of these surfactants was determined by polarization spectrofluorimetry and by light scattering (FIG. 9).
The size distribution of the particles was measured by photon correlation spectroscopy of light of samples diluted in water using a Malvern HPPS/NIBS device equipped with a 3 mW He/Ne laser and a 288-channel correlator equipped with an avalanche of photodiodes. […]

[3] = Phase transition temperature by polarization spectrofluorimetry (DPH probe) and light scattering; conditions: polarization of fluorescent probe DPH
Protocol: (§2) The size and the mechanical stability over time of the particles obtained in the solution were measured after dynamic light diffraction filtration (High Performance Particle Sizer, Malvern). The nature of the particles obtained was studied by transmission electron microscopy after negative staining of the sample or after freeze-fracture. The critical aggregation concentration of these surfactants was determined by tensiometry or by spectrofluorimetry using the fluorescent label method. Furthermore, the Wilhelmy tensiometry technique made it possible to determine the maximum surface tensions and the area of the polar head at the water-air interface (FIG. 8). […] In order to cause this value to decrease or increase, it is necessary to, respectively, increase or decrease the length of the hydrocarbon-based chains. The phase transition temperature of these surfactants was determined by polarization spectrofluorimetry and by light scattering (FIG. 9).
With R=C17H35 (derivative A1). The phase transition temperature was measured via detection of the polarization of a fluorescent probe, DPH, by spectrofluorimetry: Tm=54° C.

[4] = Mechanical stability over time of the particles (particle size on storage)
Protocol: as §1, §2

[5] = Shape and size of tubular vesicles from transmission electron micrographs (negative staining, freeze-fracture)
Protocol: as §1
The freeze-fracture analyses confirmed the formation of these tubular vesicles and their morphological characteristics, namely the presence of an inner aqueous cavity isolated from the outside medium (FIG. 5).
The freeze-fracture analyses confirmed the formation of these tubular vesicles and their morphological characteristics, i.e. the presence of an inner aqueous cavity isolated from the outside medium.

| release kinetics of encapsulated carboxyfluorescein [1] | mean hydrodynamic diameter of the tubular vesicles ([2]; tubular vesicles from lipid dispersed in water at 2.5 mg.ml^-1, measured by light diffraction) [nm] | IP ([2]; tubular vesicles, light diffraction, printed with the mean hydrodynamic diameter) | phase transition temperature Tm [3] [°C] | average cross section of the tubular vesicles [5] [nm] | average length of the tubular vesicles [5] [nm] | mechanical stability of the liposomes formed in water ([4]; liposomes with conventional structures) | Compound | change in particle size on storage ([4]; aqueous dispersion of tubular vesicles) |
| --- | --- | --- | --- | --- | --- | --- | --- | --- |
| slower release kinetics | 132 | 0.35 | 54 | 38 | 247 |  | CCCCCCCCCCCCCCCCCNC(=O)OCC(CNC(=O)CCSCCC(=O)NC(CO)(CO)CO)OC(=O)NCCCCCCCCCCCCCCCCC (centres unmarked) [A1] | no change in particle size is observed after one year of storage |
|  |  |  |  |  |  | only a few hours | CCCCCCCCCCCCCCCCCC(=O)OCC(CNC(=O)CCSCCC(=O)NC(CO)(CO)CO)OC(=O)CCCCCCCCCCCCCCCCC (centres unmarked) [B, reference compound] |  |
